Three molecules from patent US12349665B2, “Animal model for hepatocellular carcinoma and uses thereof” (TAIPEI VETERANS GENERAL HOSPITAL, priority 2019, dated 2025) can be followed below.

What all share (assay type): in vivo, mouse
The subject of test [1] is HBV. Kind of test: Long-term use and withdrawal of HBV antiviral drugs in hybrid mice (HBV transgenic x miR-122 knock-out), viral load. The note with it: six-month-old hybrid mice, ETV 5 or 1 mg/kg; for amount of virus after one month of medication (M1) / amount of virus after one month of withdrawal (M2): TDF 135 or 50 mg/kg. On the procedure: Six-month-old hybrid mice were fed with different doses of TDF (135 or 50 mg/kg-day) and […] (5 or 1 mg/kg-day).
(Wu & Wu et al. Gastroenterology 2014). At present, nucleoside analogues that are more commonly used clinically are tenofovir (TDF) and entecavir (ETV), which have strong antiviral efficacy and rarely have drug resistance. Reactivation of the virus and recurrence of hepatitis occurred more frequently and early after withdrawal of tenofovir (TDF) than after withdrawal of entecavir (ETV). Withdrawal of tenofovir (TDF) may sometimes cause liver failure for some unknown reason. The effect of long-term use and withdrawal of HBV antiviral drug tenofovir (TDF) and entecavir (ETV) on the amount of virus was compared. Six-month-old hybrid mice were fed with different doses of TDF (135 or 50 mg/kg) and ETV (5 or 1 mg/kg). […] Studies of efficacy and side effects of long-term use of tenofovir (TDF) or entecavir (ETV) on reducing hepatitis by using the hybrid mice are going on, and valuable clinical data will be provided.

Test [2] deals with wild-type hepatitis B virus. Kind of test: Antiviral drug treatment of HBV transgenic mice with wild-type HBV genome, amount of virus in serum. An excerpt: (§1) According to the present invention, the drug resistant HBV genome is resistant to an antiviral nucleoside analogue, such as adefovir or lamivudine.
(§2) The upper and lower limits of the rectangles in the figure are quartiles, and the horizontal lines within the rectangles indicate the median. Mann-Whitney U test was used for statistical analysis, and p=0.0093, showing the significant differences.

For test [3], the system named is drug resistant HBV genome. The experiment in a line: Antiviral drug treatment of HBV transgenic mice with drug resistant HBV genome, amount of virus in serum. The settings on record: compared with wild-type HBV genome mice.
Text: as §1, §2

For the molecule `C=C1[C@H](CO)[C@@H](O)C[C@@H]1n1cnc2c(=O)[nH]c(N)nc21` [ETV, entecavir], in test [1], the “amount of virus after 3 months of withdrawal (M4)” value fell in the range of 1.0E+5 to 1.0E+6, the “amount of virus after 6 months of withdrawal (M7)” value is reported as “rose to the level before the medication (M0)”, the “amount of virus after one month of medication (M1)” value is reported as “reduce the amount of virus to a minimum” and the “amount of virus after one month of withdrawal (M2)” value is on record as “maintained at the lower level”.
Consider `CC(C)OC(=O)OCOP(=O)(CO[C@H](C)Cn1cnc2c(N)ncnc21)OCOC(=O)OC(C)C.O=C(O)/C=C/C(=O)O` [TDF, tenofovir], for which, in test [1], the “amount of virus after one month of medication (M1)” value is given as “reduce the amount of virus to a minimum” and the “amount of virus after one month of withdrawal (M2)” value was “quickly rose to the level before medication (M0)”.
Consider `Nc1ncnc2c1ncn2CCOCP(=O)(O)O` [adefovir], for which the “amount of serum virus after treatment with antiviral drug” value in test [2] is on record as “decreased by more than a thousand times”; in test [3] it was “decreased much less”.
